{
  "source": "patent US11117894B2",
  "about": "“Pyridopyrazine compounds and uses thereof” (CITY OF HOPE, priority 2017, dated 2021)",
  "key": {"A2058 melanoma": {"tested_on": "A2058 melanoma", "assay": "MTS cell viability assay, A2058 melanoma cell line", "format": "cell-based", "conditions": "48 h; for Viability (% CTL) at 10 μM A2058 melanoma: Table 2, 10 μM; for IC50: Homo sapiens, MTS; for Viability % CTL A2058 melanoma: Table 1, screened at 10 μM; for Viability % CTL A2058 melanoma (10 μM): Table 4, 10 μM", "method": "(§1) MTS assays were performed for cell viability. To determine if novel pyridopyrazine derivatives have antitumor activities, compounds were screened at 10 μM final concentration with A2058 melanoma and DU145 prostate cancer cell lines. Compounds #16 and #17 were selected to determine IC50 values against lung cancer cell lines, including A549, DMS273, H69, H513, H2461, DMS114, H358 and H2596. In this assay, cells (5000/well) were seeded in 96-well plates, incubated overnight at 37° C. in 5% CO2, and exposed to 10 μM of compounds or in a dose-dependent manner for 48 h. After 48 h treatment with compounds, MTS dye (20 μL/well) was added to 96-well plates. Viable cell numbers were determined by tetrazolium conversion to its formazan dye. Absorbance was measured at 490 nm using an automated ELISA plate reader. Dimethyl sulfoxide (DMSO) was used as the vehicle control. Each experiment was conducted in triplicate. IC50 values were determined using CalcuSyn software (Biosoft)."}, "DU145 prostate cancer": {"tested_on": "DU145 prostate cancer", "assay": "MTS cell viability assay, DU145 prostate cancer cell line", "format": "cell-based", "conditions": "48 h; for Viability (% CTL) at 10 μM DU145 prostate: Table 2; for IC50: Homo sapiens, DU-145, DU145 prostate cancer, MTS; for Viability % CTL DU145 prostate: Table 1, screened at 10 μM; for Viability % CTL DU145 prostate (10 μM ): Table 4", "method": "as §1"}, "[1]": {"tested_on": "DMS273 small cell lung cancer", "assay": "MTS cell viability assay, DMS273 lung cancer cell line", "format": "cell-based", "conditions": "Homo sapiens, DMS-273, 48 h", "method": "as §1"}, "H2461 NSCLC": {"tested_on": "H2461 NSCLC", "assay": "MTS cell viability assay, H2461 lung cancer cell line", "format": "cell-based", "conditions": "48 h", "method": "as §1"}, "A549 NSCLC": {"tested_on": "A549 NSCLC", "assay": "MTS cell viability assay, A549 lung cancer cell line", "format": "cell-based", "conditions": "Homo sapiens, 48 h", "method": "as §1"}, "H2596 NSCLC": {"tested_on": "H2596 NSCLC", "assay": "MTS cell viability assay, H2596 lung cancer cell line", "format": "cell-based", "conditions": "48 h", "method": "as §1"}, "H358 NSCLC": {"tested_on": "H358 NSCLC", "assay": "MTS cell viability assay, H358 lung cancer cell line", "format": "cell-based", "conditions": "Homo sapiens, NCI-H358, 48 h", "method": "as §1"}, "[2]": {"tested_on": "H69 small cell lung cancer", "assay": "MTS cell viability assay, H69 lung cancer cell line", "format": "cell-based", "conditions": "48 h", "method": "as §1"}, "H513 NSCLC": {"tested_on": "H513 NSCLC", "assay": "MTS cell viability assay, H513 lung cancer cell line", "format": "cell-based", "conditions": "48 h", "method": "as §1"}, "[3]": {"tested_on": "DMS114 small cell lung cancer", "assay": "MTS cell viability assay, DMS114 lung cancer cell line", "format": "cell-based", "conditions": "Homo sapiens, DMS-114, 48 h", "method": "as §1"}},
  "data": [
    {"smiles": "Cc1nc2nc(Nc3ccccc3)cnc2cc1N", "note": "[Compound 7, 6-Methyl-N^3-phenylpyrido[2,3-b]pyrazine-3,7-diamine]", "values": [
      {"measurement": "Viability (% CTL) at 10 μM A2058 melanoma", "setting": "A2058 melanoma", "result": 98, "unit": "% CTL"},
      {"measurement": "Viability (% CTL) at 10 μM DU145 prostate", "setting": "DU145 prostate cancer", "result": 76, "unit": "% CTL"},
      {"measurement": "melting point", "result": "> 300 °C (dec.)"}
    ]},
    {"smiles": "Cc1nc2nc(Nc3ccccc3)cnc2cc1NC(=O)c1ccc(N)cc1", "note": "[Compound 13, 4-Amino-N-(6-methyl-3-(phenylamino)pyrido[2,3-b]pyrazin-7-yl)benzamide]", "values": [
      {"measurement": "Viability (% CTL) at 10 μM A2058 melanoma", "setting": "A2058 melanoma", "result": 84, "unit": "% CTL"},
      {"measurement": "Viability (% CTL) at 10 μM DU145 prostate", "setting": "DU145 prostate cancer", "result": 77, "unit": "% CTL"},
      {"measurement": "melting point", "result": 265, "unit": "°C"}
    ]},
    {"smiles": "Cc1nc2nc(Nc3ccccc3)cnc2cc1NC(=O)Nc1cccc(C(F)(F)F)c1", "note": "[Compound 16, 1-(6-Methyl-3-(phenylamino)pyrido[2,3-b]pyrazin-7-yl)-3-(3-(trifluoromethyl)phenyl)urea]", "values": [
      {"measurement": "IC50", "setting": "A2058 melanoma", "result": 1.29, "unit": "µM"},
      {"measurement": "Viability % CTL A2058 melanoma", "setting": "A2058 melanoma", "result": 4, "unit": "% CTL"},
      {"measurement": "IC50", "setting": "[1]", "result": 1.09, "unit": "µM"},
      {"measurement": "IC50", "setting": "H2461 NSCLC", "result": 1.71, "unit": "µM"},
      {"measurement": "IC50", "setting": "DU145 prostate cancer", "result": 1.72, "unit": "µM"},
      {"measurement": "Viability % CTL DU145 prostate", "setting": "DU145 prostate cancer", "result": 10, "unit": "% CTL"},
      {"measurement": "IC50", "setting": "A549 NSCLC", "result": 1.54, "unit": "µM"},
      {"measurement": "IC50", "setting": "H2596 NSCLC", "result": 1.07, "unit": "µM"},
      {"measurement": "IC50", "setting": "H358 NSCLC", "result": 1.97, "unit": "µM"},
      {"measurement": "IC50", "setting": "[2]", "result": 0.98, "unit": "µM"},
      {"measurement": "IC50", "setting": "H513 NSCLC", "result": 1.26, "unit": "µM"},
      {"measurement": "IC50", "setting": "[3]", "result": 3.15, "unit": "µM"}
    ]},
    {"smiles": "Cc1nc2nc(Nc3ccccc3)cnc2cc1NC(=O)Nc1ccc(F)c(Cl)c1", "note": "[Compound 17, 1-(3-Chloro-4-fluorophenyl)-3-(6-methyl-3-(phenylamino)pyrido[2,3-b]pyrazin-7-yl)urea]", "values": [
      {"measurement": "IC50", "setting": "A2058 melanoma", "result": 1.13, "unit": "µM"},
      {"measurement": "Viability % CTL A2058 melanoma", "setting": "A2058 melanoma", "result": 2, "unit": "% CTL"},
      {"measurement": "IC50", "setting": "[1]", "result": 0.32, "unit": "µM"},
      {"measurement": "IC50", "setting": "H2461 NSCLC", "result": 0.8, "unit": "µM"},
      {"measurement": "IC50", "setting": "DU145 prostate cancer", "result": 1.04, "unit": "µM"},
      {"measurement": "Viability % CTL DU145 prostate", "setting": "DU145 prostate cancer", "result": 0, "unit": "% CTL"},
      {"measurement": "IC50", "setting": "A549 NSCLC", "result": 0.92, "unit": "µM"},
      {"measurement": "IC50", "setting": "H2596 NSCLC", "result": 0.62, "unit": "µM"},
      {"measurement": "IC50", "setting": "H358 NSCLC", "result": 1.18, "unit": "µM"},
      {"measurement": "IC50", "setting": "[2]", "result": 0.51, "unit": "µM"},
      {"measurement": "IC50", "setting": "H513 NSCLC", "result": 0.69, "unit": "µM"},
      {"measurement": "IC50", "setting": "[3]", "result": 0.72, "unit": "µM"}
    ]},
    {"smiles": "COc1cc(Nc2cnc3cc(NC(=O)Nc4cccc(C(F)(F)F)c4)c(C)nc3n2)cc(OC)c1OC", "note": "[Compound 34, 1-(6-Methyl-3-((3,4,5-trimethoxyphenyl)amino)pyrido[2,3-b]pyrazin-7-yl)-3-(3-(trifluoromethyl)phenyl)urea]", "values": [
      {"measurement": "Viability % CTL A2058 melanoma (10 μM)", "setting": "A2058 melanoma", "result": 116, "unit": "% CTL"},
      {"measurement": "Viability % CTL DU145 prostate (10 μM )", "setting": "DU145 prostate cancer", "result": 81, "unit": "% CTL"}
    ]},
    {"smiles": "Cc1nc2nc(Nc3ccc(C(=O)O)cc3)cnc2cc1NC(=O)Nc1ccc(F)c(Cl)c1", "note": "[Compound 35, 4-((7-(3-(3-Chloro-4-fluorophenyl)ureido)-6-methylpyrido[2,3-b]pyrazin-3-yl)amino)benzoic acid]", "values": [
      {"measurement": "Viability % CTL A2058 melanoma (10 μM)", "setting": "A2058 melanoma", "result": 98, "unit": "% CTL"},
      {"measurement": "Viability % CTL DU145 prostate (10 μM )", "setting": "DU145 prostate cancer", "result": 82, "unit": "% CTL"}
    ]},
    {"smiles": "Cc1nc2nc(Nc3ccc(C(=O)O)cc3)cnc2cc1NC(=O)Nc1cccc(C(F)(F)F)c1", "note": "[Compound 36, 4-((6-Methyl-7-(3-(3-(trifluoromethyl)phenyl)ureido)pyrido[2,3-b]pyrazin-3-yl)amino)benzoic acid]", "values": [
      {"measurement": "Viability % CTL A2058 melanoma (10 μM)", "setting": "A2058 melanoma", "result": 113, "unit": "% CTL"},
      {"measurement": "Viability % CTL DU145 prostate (10 μM )", "setting": "DU145 prostate cancer", "result": 77, "unit": "% CTL"}
    ]},
    {"smiles": "Cc1nc2nc(Oc3ccccc3)cnc2cc1[N+](=O)[O-]", "note": "[Compound 55C]", "values": [
      {"measurement": "Viability % CTL A2058 melanoma", "setting": "A2058 melanoma", "result": 91, "unit": "% CTL"},
      {"measurement": "Viability % CTL DU145 prostate", "setting": "DU145 prostate cancer", "result": 95, "unit": "% CTL"}
    ]},
    {"smiles": "Cc1nc2nc(Oc3ccccc3)cnc2cc1N", "note": "[Compound 56D]", "values": [
      {"measurement": "Viability % CTL A2058 melanoma", "setting": "A2058 melanoma", "result": 81, "unit": "% CTL"},
      {"measurement": "Viability % CTL DU145 prostate", "setting": "DU145 prostate cancer", "result": 108, "unit": "% CTL"}
    ]},
    {"smiles": "Cc1nc2nc(Oc3ccccc3)cnc2cc1NC(=O)Nc1ccccc1", "note": "[Compound 57C]", "values": [
      {"measurement": "Viability % CTL A2058 melanoma", "setting": "A2058 melanoma", "result": 94, "unit": "% CTL"},
      {"measurement": "Viability % CTL DU145 prostate", "setting": "DU145 prostate cancer", "result": 126, "unit": "% CTL"}
    ]}
  ]
}
